# Experimental data as given in patent US20220162191A1, “SMALL MOLECULE MODULATORS OF IL-17” (LEO PHARMA A/S, priority 2019, published 2022).
# Molecular target: T1, human IL-17AA (Homo sapiens, UniProt Q16552)
# T1 construct: host or cells: HEK (human embryonic kidney) cells
# T1 sequence (Q16552 24-155) 1: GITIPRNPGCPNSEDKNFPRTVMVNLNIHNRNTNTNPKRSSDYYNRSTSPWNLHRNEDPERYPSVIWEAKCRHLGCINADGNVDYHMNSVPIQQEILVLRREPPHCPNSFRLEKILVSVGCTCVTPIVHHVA
# T1 sequence (Q16552 24-155) 2: T1 sequence (Q16552 24-155) 1
# Test: IL-8 release assay in human epithelial keratinocytes adult (HEKa)
# Format: cell-based
# Details: 3 ng/ml human IL-17AA + 10 ng/ml human TNFalpha, 68-72 h, IL-8 by HTRF, read-out: Rel EC50 L-8 release assay
# In short: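 Adult human keratinocytes in Epilife with HKGS minus hydrocortisone, treated with compound then stimulated with final 3 ng/ml HEK-derived human IL-17AA plus 10 ng/ml TNF-alpha for 68–72 h at 37 °C; TNF-alpha alone defines 100% inhibition. Secreted IL-8 by HTRF; relative IC50 and Emax from four-parameter fits.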
row,SMILES,EC50 [nM]
1,"Cn1cnnc1-c1ccc(NC(=O)C(Cc2cc(-c3ccc(O)c(CN4CCC4)c3)ccc2Cl)NC(=O)c2ccnn2C)cc1 (centres unmarked) [Example 168, N-[1-[[5-[3-(azetidin-1-ylmethyl)-4-hydroxy-phenyl]-2-chloro-phenyl]methyl]-2-[4-(4-methyl-1,2,4-triazol-3-yl)anilino]-2-oxo-ethyl]-2-methyl-pyrazole-3-carboxamide]",100 to 1000
2,"Cc1cnn(C)c1-c1ccc(NC(=O)[C@@H](NC(=O)c2ccnn2C)[C@@H](c2cccc(-c3cncc(N4C[C@@H]5C[C@H]4CO5)n3)c2)C2CC2)cc1 [Example 349, N-[(1S)-1-[(R)-cyclopropyl-[3-[6-[(1S,4S)-2-oxa-5-azabicyclo[2.2.1]heptan-5-yl]pyrazin-2-yl]phenyl]methyl]-2-[4-(2,4-dimethylpyrazol-3-yl)anilino]-2-oxo-ethyl]-2-methyl-pyrazole-3-carboxamide]",< 100
3,"Cn1cnnc1-c1ccc(NC(=O)C(Cc2cc(-c3cccc(C4(O)CCC4)c3)ccc2Cl)NC(=O)c2ccnn2C)cc1 (centres unmarked) [Example 144, N-[1-[[2-chloro-5-[3-(1-hydroxycyclobutyl)phenyl]phenyl]methyl]-2-[4-(4-methyl-1,2,4-triazol-3-yl)anilino]-2-oxo-ethyl]-2-methyl-pyrazole-3-carboxamide]",100 to 1000
4,"Cc1cnn(C)c1-c1ccc(NC(=O)[C@H](Cc2cc(-c3ccc(=O)n(C(C)C)c3)ccc2Cl)NC(=O)CC2CCC2)cc1 [Example 335, (2S)-3-[2-chloro-5-(1-isopropyl-6-oxo-3-pyridyl)phenyl]-2-[(2-cyclobutylacetyl)amino]-N-[4-(2,4-dimethylpyrazol-3-yl)phenyl]propanamide]",100 to 1000
5,"Cc1ncn(C)c1-c1ccc(NC(=O)[C@@H](NC(=O)C2(F)CC2)[C@@H]2CCCc3ccc(-c4ccnc(N5C[C@@H]6C[C@H]5CN6)c4)cc32)cc1 [Example 40, N-[(1S)-1-[(1R)-7-[2-[(1S,4S)-2,5-diazabicyclo[2.2.1]heptan-2-yl]-4-pyridyl]tetralin-1-yl]-2-[4-(3,5-dimethylimidazol-4-yl)anilino]-2-oxo-ethyl]-1-fluoro-cyclopropanecarboxamide]",< 100
6,"Cc1cnn(C)c1-c1ccc(NC(=O)[C@@H](NC(=O)c2ccnn2C)[C@@H]2CCc3ccc(-c4ccnc(N5C[C@@H]6C[C@H]5CO6)c4)cc32)cc1 [Example 378, N-[(1S)-2-[4-(2,4-dimethylpyrazol-3-yl)anilino]-1-[(1R)-6-[2-[(1S,4S)-2-oxa-5-azabicyclo[2.2.1]heptan-5-yl]-4-pyridyl]indan-1-yl]-2-oxo-ethyl]-2-methyl-pyrazole-3-carboxamide]",< 100
7,"Cc1n[nH]c(C)c1-c1ccc(NC(=O)[C@@H](NC(=O)C2(F)CC2)[C@@H]2CCc3ccc(-c4cc(N5CC(F)C5)ncn4)cc32)cc1 [Example 376, N-[(1S)-2-[4-(3,5-dimethyl-1H-pyrazol-4-yl)anilino]-1-[(1R)-6-[6-(3-fluoroazetidin-1-yl)pyrimidin-4-yl]indan-1-yl]-2-oxo-ethyl]-1-fluoro-cyclopropanecarboxamide]",100 to 1000
8,"Cc1n[nH]c(C)c1-c1ccc(NC(=O)[C@@H](NC(=O)C2(F)CC2)[C@@H]2CCCc3ccc(-c4cc(N5C[C@@H]6C[C@H]5CO6)ncn4)cc32)cc1 [Example 397, N-[(1S)-2-[4-(3,5-dimethyl-1H-pyrazol-4-yl)anilino]-1-[(1R)-7-[6-[(1S,4S)-2-oxa-5-azabicyclo[2.2.1]heptan-5-yl]pyrimidin-4-yl]tetralin-1-yl]-2-oxo-ethyl]-1-fluoro-cyclopropanecarboxamide]",< 100
9,"Cn1cncc1-c1ccc(NC(=O)[C@@H](NC(=O)C2(F)CC2)[C@@H]2CCCc3ccc(-c4ccnc(N5C[C@H]6C[C@@H]5CO6)c4)cc32)cc1O [Example 404, 1-fluoro-N-[(1S)-2-[3-hydroxy-4-(3-methylimidazol-4-yl)anilino]-1-[(1R)-7-[2-[(1R,4R)-2-oxa-5-azabicyclo[2.2.1]heptan-5-yl]-4-pyridyl]tetralin-1-yl]-2-oxo-ethyl]cyclopropanecarboxamide]",> 1000
10,"CC(C)n1cc(-c2ccc(Cl)c(C[C@H](NC(=O)OCc3ccccc3)C(=O)Nc3ccc(-c4nncn4C)cc3)c2)ccc1=O [Example 87, benzyl N-[(1S)-1-[[2-chloro-5-(1-isopropyl-6-oxo-3-pyridyl)phenyl]methyl]-2-[4-(4-methyl-1,2,4-triazol-3-yl)anilino]-2-oxo-ethyl]carbamate]",100 to 1000
11,"Cc1n[nH]c(C)c1-c1ccc(NC(=O)[C@@H](NC(=O)c2ccnn2C)[C@@H]2CCc3ccc(-c4ccc(CN5CCCC5)cc4)cc32)cc1 [Example 19, N-[(1S)-2-[4-(3,5-dimethyl-1H-pyrazol-4-yl)anilino]-2-oxo-1-[(1R)-6-[4-(pyrrolidin-1-ylmethyl)phenyl]indan-1-yl]ethyl]-2-methyl-pyrazole-3-carboxamide]",100 to 1000
12,"Cn1cncc1-c1ccc(NC(=O)C(Cc2cc(-c3ccnc(N4CC5(CNC5)C4)c3)ccc2Cl)NC(=O)c2ccnn2C)cc1 (centres unmarked) [Example 194, N-[1-[[2-chloro-5-[2-(2,6-diazaspiro[3.3]heptan-6-yl)-4-pyridyl]phenyl]methyl]-2-[4-(3-methylimidazol-4-yl)anilino]-2-oxo-ethyl]-2-methyl-pyrazole-3-carboxamide]",100 to 1000
13,"CC(C)c1cc(-c2ccc(Cl)c(CC(NC(=O)c3ccnn3C)C(=O)Nc3ccc(-c4nncn4C)cc3)c2)ccn1 (centres unmarked) [Example 75, N-[1-[[2-chloro-5-(2-isopropyl-4-pyridyl)phenyl]methyl]-2-[4-(4-methyl-1,2,4-triazol-3-yl)anilino]-2-oxo-ethyl]-2-methyl-pyrazole-3-carboxamide]",> 1000
14,"Cn1cnnc1-c1ccc(NC(=O)C(Cc2cc(-c3ccc(O)c(C(=O)N4CCNCC4)c3)ccc2Cl)NC(=O)c2ccnn2C)cc1 (centres unmarked) [Example 173, N-[1-[[2-chloro-5-[4-hydroxy-3-(piperazine-1-carbonyl)phenyl]phenyl]methyl]-2-[4-(4-methyl-1,2,4-triazol-3-yl)anilino]-2-oxo-ethyl]-2-methyl-pyrazole-3-carboxamide]",> 1000
15,"CN(c1cc(-c2ccc(Cl)c(CC(NC(=O)c3ccnn3C)C(=O)Nc3ccc(-c4cncn4C)cc3)c2)ccn1)C1CC1 (centres unmarked) [Example 150, N-[1-[[2-chloro-5-[2-[cyclopropyl(methyl)amino]-4-pyridyl]phenyl]methyl]-2-[4-(3-methylimidazol-4-yl)anilino]-2-oxo-ethyl]-2-methyl-pyrazole-3-carboxamide]",< 100
16,"Cn1cncc1-c1ccc(NC(=O)[C@H](Cc2cc(-c3cccc([C@@H]4CNCCO4)c3)ccc2Cl)NC(=O)c2ccnn2C)cc1 [Example 221, N-[(1S)-1-[[2-chloro-5-[3-[(2R)-morpholin-2-yl]phenyl]phenyl]methyl]-2-[4-(3-methylimidazol-4-yl)anilino]-2-oxo-ethyl]-2-methyl-pyrazole-3-carboxamide]",100 to 1000
17,"Cc1nn(C)cc1-c1ccc(NC(=O)[C@@H](NC(=O)C2(F)CC2)[C@@H]2CCc3ccc(-c4ccnc(N5C[C@@H]6C[C@H]5CO6)c4)cc32)cc1 [Example 372, N-[(1S)-2-[4-(1,3-dimethylpyrazol-4-yl)anilino]-1-[(1R)-6-[2-[(1S,4S)-2-oxa-5-azabicyclo[2.2.1]heptan-5-yl]-4-pyridyl]indan-1-yl]-2-oxo-ethyl]-1-fluoro-cyclopropanecarboxamide]",100 to 1000
18,"Cn1cncc1-c1ccc(NC(=O)C(Cc2cc(-c3ccnc(OCC(F)(F)F)c3)ccc2Cl)NC(=O)c2ccnn2C)cc1 (centres unmarked) [Example 152, N-[1-[[2-chloro-5-[2-(2,2,2-trifluoroethoxy)-4-pyridyl]phenyl]methyl]-2-[4-(3-methylimidazol-4-yl)anilino]-2-oxo-ethyl]-2-methyl-pyrazole-3-carboxamide]",100 to 1000
19,"Cn1cncc1-c1ccc(NC(=O)C(Cc2cc(-c3ccnc(OCC4CC4)c3)ccc2Cl)NC(=O)c2ccnn2C)cc1 (centres unmarked) [Example 166, N-[1-[[2-chloro-5-[2-(cyclopropylmethoxy)-4-pyridyl]phenyl]methyl]-2-[4-(3-methylimidazol-4-yl)anilino]-2-oxo-ethyl]-2-methyl-pyrazole-3-carboxamide]",100 to 1000
20,"Cc1noc(C)c1-c1ccc(NC(=O)C(Cc2cc(-c3ccc(=O)n(C(C)C)c3)ccc2Cl)NC(=O)c2ccnn2C)cc1 (centres unmarked) [Example 93, N-[1-[[2-chloro-5-(1-isopropyl-6-oxo-3-pyridyl)phenyl]methyl]-2-[4-(3,5-dimethylisoxazol-4-yl)anilino]-2-oxo-ethyl]-2-methyl-pyrazole-3-carboxamide]",100 to 1000
21,"Cc1n[nH]c(C)c1-c1ccc(NC(=O)[C@@H](NC(=O)C2(F)CC2)[C@@H]2CCc3ccc(-c4ccnc(N5CC6(COC6)C5)c4)cc32)cc1 [Example 364, N-[(1S)-2-[4-(3,5-dimethyl-1H-pyrazol-4-yl)anilino]-1-[(1R)-6-[2-(6-oxa-2-azaspiro[3.3]heptan-2-yl)-4-pyridyl]indan-1-yl]-2-oxo-ethyl]-1-fluoro-cyclopropanecarboxamide]",< 100
22,"Cc1n[nH]c(C)c1-c1ccc(NC(=O)[C@@H](NC(=O)c2ccnn2C)[C@@H]2CCCc3ccc(-c4ccc5c(c4)CCN(C)C5)cc32)cc1 [Example 36, N-[(1S)-2-[4-(3,5-dimethyl-1H-pyrazol-4-yl)anilino]-1-[(1R)-7-(2-methyl-3,4-dihydro-1H-isoquinolin-6-yl)tetralin-1-yl]-2-oxo-ethyl]-2-methyl-pyrazole-3-carboxamide]",< 100
23,"Cn1cncc1-c1ccc(NC(=O)C(Cc2cc(-c3ccnc(N4CCCC4)c3)ccc2Cl)NC(=O)c2ccnn2C)cc1 (centres unmarked) [Example 146, N-[1-[[2-chloro-5-(2-pyrrolidin-1-yl-4-pyridyl)phenyl]methyl]-2-[4-(3-methylimidazol-4-yl)anilino]-2-oxo-ethyl]-2-methyl-pyrazole-3-carboxamide]",100 to 1000
